Tested on: rat platelets
Assay: ADP-induced platelet aggregation, rat PRP (Example 45)
Format: cell-based
Conditions: 1 μM
Protocol: Blood may be drawn via cardiac puncture from anesthetized Sprague Dawley rats (Taconic, Hudson, N.Y.), WT C57B1/6 mice (Jackson Laboratories, Bar Harbor, Me.), and mice expressing hαIIb/mβ3 and diluted 1:1 with a mixture of 4 parts 0.165 […], pH 7.4 containing 2 mM CaCl2 and 1 mM MgCl2. Blood from consenting human volunteers is obtained from a peripheral vein using a 19 gauge needle and anticoagulated with 1:10 vol 3.8% sodium citrate. Platelet-rich plasma (PRP) may be isolated by centrifugation at 22° C. at 350 g for 10 minutes (rats); 250 g for 2.5 minutes (mice); or 650 g for 4 minutes (human). Mouse PRP samples may be adjusted to 400,000 platelets/μl with the buffer used for dilution and human PRP may be adjusted to 300,000 platelets/μl with platelet-poor plasma. […] Platelet aggregation may be induced by adding to PRP adenosine diphosphate (ADP) at 30 μM (rats and WT mice), 20 or 30 μM (hαIIb/mβ3 mice), or 5 μM (humans), and light transmission may be measured over time in an aggregometer (Kowa AG-10E, Tokyo, Japan) with stirring. Percent inhibition may be calculated by comparing the initial slope of untreated samples to the samples treated with the Compounds of the Invention.

## NCC(=O)Nc1cccc(-c2nn3c(=O)cc(N4CCNCC4)nc3s2)c1 [Example 27, 2-amino-N-(3-(5-oxo-7-(piperazin-1-yl)-5H-[1,3,4]thiadiazolo[3,2-a]pyrimidin-2-yl)phenyl)acetamide]
  inhibition of rat platelet aggregation induced by ADP: does not inhibit either mouse or rat platelet aggregation
